According to patent publication US20090054417A1, “COMPOUNDS AND COMPOSITIONS AS MODULATORS OF STEROID HORMONE NUCLEAR RECEPTORS” (IRM LLC, priority 2004, published 2009):

Tests used:
Type in all cases: cell-based
[1] = biological target: T1, PR (Homo sapiens, UniProt P06401); assay: Functional assay of progesterone receptor antagonism (progesterone-induced alkaline phosphatase activity in T-47D cells); details: antagonism of PR activity induced by 3 nM progesterone
T1 sequence (P06401 1-933): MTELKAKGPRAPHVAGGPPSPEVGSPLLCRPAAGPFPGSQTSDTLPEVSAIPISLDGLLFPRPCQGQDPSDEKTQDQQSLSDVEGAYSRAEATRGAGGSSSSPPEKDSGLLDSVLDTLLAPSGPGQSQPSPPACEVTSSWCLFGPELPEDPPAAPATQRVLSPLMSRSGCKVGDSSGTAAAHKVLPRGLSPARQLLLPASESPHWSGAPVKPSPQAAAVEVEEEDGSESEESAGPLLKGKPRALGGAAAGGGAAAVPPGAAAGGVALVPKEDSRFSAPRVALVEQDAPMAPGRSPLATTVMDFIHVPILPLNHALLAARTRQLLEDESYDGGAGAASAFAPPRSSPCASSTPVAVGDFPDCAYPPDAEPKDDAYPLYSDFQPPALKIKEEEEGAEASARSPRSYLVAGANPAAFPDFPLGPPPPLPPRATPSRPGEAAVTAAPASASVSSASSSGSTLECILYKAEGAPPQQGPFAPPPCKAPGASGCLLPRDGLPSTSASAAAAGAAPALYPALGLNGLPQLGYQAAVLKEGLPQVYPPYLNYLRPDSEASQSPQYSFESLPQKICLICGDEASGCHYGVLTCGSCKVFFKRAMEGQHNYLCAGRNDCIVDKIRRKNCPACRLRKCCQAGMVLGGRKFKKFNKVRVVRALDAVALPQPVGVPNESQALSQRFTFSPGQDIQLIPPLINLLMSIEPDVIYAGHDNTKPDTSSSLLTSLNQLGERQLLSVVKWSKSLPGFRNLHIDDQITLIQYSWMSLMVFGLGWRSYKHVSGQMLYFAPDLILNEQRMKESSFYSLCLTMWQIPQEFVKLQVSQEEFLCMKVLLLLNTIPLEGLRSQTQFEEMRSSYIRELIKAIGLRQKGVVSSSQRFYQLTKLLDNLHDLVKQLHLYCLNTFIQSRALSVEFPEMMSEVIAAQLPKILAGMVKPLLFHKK
Description: The PR antagonist activity of the compounds is determined by progesterone-induced alkaline phosphatase activity in the T-47D cell line (ATCC). In the T-47D breast cancer cells, progesterone specifically induces de novo synthesis of a membrane-associated alkaline phosphatase enzyme in a time and dose-dependent manner (Di Lorenzo et al., Cancer Research, 51: 4470-4475 (1991)). The alkaline phosphatase enzymatic activity can be measured with a chemiluminescent substrate, such as CSPD® (Applied Biosystems). The assay is performed in 384 well plates. Briefly, T-47D cells are plated in 384 well plates at a density of approximately 2.5×10^4 cells/well in 50 μl medium supplemented with 10% fetal bovine serum. Twenty four hours later, the medium is aspirated. New medium that is free of phenol red and serum is added to the cells. Compounds prepared in DMSO are transferred to the cells. The cells are then stimulated with 3 nM final concentration of progesterone (Sigma) and incubated at 37° C. for another 24 hours before the alkaline phosphatase is assayed with 25 μl of CSPD® (Applied Biosystems) using a luminometer (CLIPR). The expression of alkaline phosphatase is used as an indicator of progesterone-induced PR trans-activation. Each compound is tested in duplicates with a 12-concentration titration. […]

[2] = biological target: T2, MR (Homo sapiens, UniProt P08235); assay: Functional assay of mineralocorticoid receptor antagonism (mammalian two hybrid luciferase reporter, 293T cells, aldosterone-stimulated); details: antagonism of MR trans-activation induced by 0.4 nM aldosterone
T2 construct: expressed in transfected cells; host or cells: 293T cells
T2 sequence (P08235 672-984): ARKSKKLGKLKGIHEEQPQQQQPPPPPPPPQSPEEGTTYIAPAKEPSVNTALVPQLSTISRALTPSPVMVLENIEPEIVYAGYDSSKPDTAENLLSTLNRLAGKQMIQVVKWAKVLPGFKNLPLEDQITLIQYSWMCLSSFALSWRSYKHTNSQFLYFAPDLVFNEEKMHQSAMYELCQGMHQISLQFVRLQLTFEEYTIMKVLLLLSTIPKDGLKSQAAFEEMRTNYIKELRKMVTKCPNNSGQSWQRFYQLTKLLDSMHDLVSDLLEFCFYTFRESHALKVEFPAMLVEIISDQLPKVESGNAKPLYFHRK
Description: The MR antagonist activity of the compounds is determined in a mammalian two hybrid reporter system. The N-terminus of MR (MR-NT, sequence coding amino acid 1-597) is fused to the activation domain of the VP16 gene. The ligand binding domain of MR (MR-LBD, sequence encoding amino acid 672-984) is fused to the DNA binding domain of the yeast Gal4 gene. The MR gene is cloned from a human kidney cDNA library with PCR.
The assay is performed in 384 well plates. Briefly, 293T cells (ATCC) are transfected with expression vectors for Gal-4-MR-LBD and VP16-MR NT, and a luciferase reporter vector containing Gal4 binding sequence (pG5-Luc). Cells are plated in 384 well plates immediately after transfection (approximately 3×10^4 cells/well in 50 μl medium). The medium is supplemented with 3% charcoal-dextran treated fetal bovine serum (Hyclone). Twenty four hours after transfection, compounds prepared in DMSO are transferred to the cells. The cells are then stimulated with 0.4 nM final concentration of aldosterone (Acros) and incubated at 37° C. for another 24 hours before the luciferase activity is assayed with 20 μl of Bright-Glo (Promega) using a luminometer (CLIPR). The expression of luciferase is used as an indicator of aldosterone-induced MR trans-activation. Each compound is tested in duplicates with 12-concentration titration. IC50 values (defined as the concentration of test compound required to antagonize 50% of aldosterone-induced MR activity) are determined from the dose-response curve.

[3] = biological target: T3, GR (Homo sapiens, UniProt P04150); assay: Functional assay of glucocorticoid receptor antagonism (Gal4-GR-LBD luciferase reporter, COS-7 cells, dexamethasone-stimulated); details: antagonism of GR trans-activation induced by 10 nM dexamethasone
T3 construct: expressed in transfected cells; host or cells: COS-7 cells
T3 sequence (P04150 541-777): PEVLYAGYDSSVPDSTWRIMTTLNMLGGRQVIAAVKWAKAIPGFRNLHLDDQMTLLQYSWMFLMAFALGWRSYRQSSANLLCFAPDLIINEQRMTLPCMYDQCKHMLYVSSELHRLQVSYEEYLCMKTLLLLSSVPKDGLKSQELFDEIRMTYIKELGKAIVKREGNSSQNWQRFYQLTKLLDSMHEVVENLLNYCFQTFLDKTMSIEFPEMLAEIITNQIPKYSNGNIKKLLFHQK
Description: The GR antagonist activity of the compounds is determined in a mammalian two hybrid reporter system. The ligand binding domain of GR (GR-LBD, sequence encoding amino acid 541-778) is fused to the DNA binding domain of the yeast Gal4 gene. The GR gene is cloned from a human lung cDNA library with PCR.
The assay is performed in 384 well plates: COS-7 cells (ATCC) are transfected with expression vectors for Gal-4-GR-LBD and a luciferase reporter vector containing Gal4 binding sequence (pG5-Luc). Cells are plated in 384 well plates immediately after transfection (approximately 8000 cells/well in 50 μl medium). The medium is supplemented with 3% charcoal-dextran treated fetal bovine serum (Hyclone). Twenty four hours after transfection, compounds prepared in DMSO are transferred to the cells. The cells are then stimulated with 10 nM final concentration of dexamethasone (Sigma) and incubated at 37° C. for another 24 hours before the luciferase activity is assayed with 20 μl of Bright-Glo (Promega) using a luminometer (CLIPR). The expression of luciferase is used as an indicator of dexamethasone-induced GR trans-activation. Each compound is tested in duplicates with a 12-concentration titration. IC50 values (defined as the concentration of test compound required to antagonize 50% of dexamethasone-induced GR activity) are determined from the dose-response curve.

[4] = biological target: T4, AR (Homo sapiens, UniProt P10275); assay: Functional assay of androgen receptor antagonism (MMTV luciferase reporter in MDA-kb2 cells, dihydrotestosterone-stimulated); details: antagonism of AR trans-activation induced by 0.3 nM dihydrotestosterone
T4 sequence (P10275 1-920 Q868H): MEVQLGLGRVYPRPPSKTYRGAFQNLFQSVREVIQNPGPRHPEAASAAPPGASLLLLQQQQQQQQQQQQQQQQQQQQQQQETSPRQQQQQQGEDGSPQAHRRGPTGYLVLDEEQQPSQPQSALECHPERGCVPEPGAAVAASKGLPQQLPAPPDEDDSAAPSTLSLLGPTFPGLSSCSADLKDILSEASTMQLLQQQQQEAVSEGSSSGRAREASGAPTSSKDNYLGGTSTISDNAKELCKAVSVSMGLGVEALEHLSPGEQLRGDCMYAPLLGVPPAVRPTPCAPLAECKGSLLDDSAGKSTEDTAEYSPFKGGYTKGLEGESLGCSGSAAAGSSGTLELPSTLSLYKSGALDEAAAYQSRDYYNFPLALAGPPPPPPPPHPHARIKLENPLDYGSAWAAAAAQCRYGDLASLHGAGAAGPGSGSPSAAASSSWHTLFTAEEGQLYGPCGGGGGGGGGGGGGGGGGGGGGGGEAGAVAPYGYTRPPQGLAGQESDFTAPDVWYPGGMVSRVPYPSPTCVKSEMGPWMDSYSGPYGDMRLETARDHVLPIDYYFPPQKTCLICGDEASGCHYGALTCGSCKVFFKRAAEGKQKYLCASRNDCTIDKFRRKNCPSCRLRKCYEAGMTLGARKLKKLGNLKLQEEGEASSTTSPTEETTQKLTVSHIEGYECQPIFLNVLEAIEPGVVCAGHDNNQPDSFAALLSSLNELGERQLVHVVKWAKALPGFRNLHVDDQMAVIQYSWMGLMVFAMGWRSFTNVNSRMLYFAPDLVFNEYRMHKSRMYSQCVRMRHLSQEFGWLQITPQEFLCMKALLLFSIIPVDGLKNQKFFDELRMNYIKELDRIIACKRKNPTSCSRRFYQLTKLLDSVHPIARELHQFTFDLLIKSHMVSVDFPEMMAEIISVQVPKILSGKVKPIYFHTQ
Description: The AR antagonist activity of the compounds is determined with the MDA-Kb2 cell line (ATCC), which stably expresses the MMTV luciferase reporter. The MMTV promoter is a mouse mammary tumor virus promoter that contains androgen receptor response elements. […] Upon stimulation with AR ligands, such as dihydrotestosterone, the MMTV luciferase reporter can be activated.
The assay is performed in 384 well plates. Briefly, MDA-kb2 cells are plated in 384 well plates at a density of approximately 2.4×10^4 cells/well in 50 μl medium. The medium is supplemented with 5% charcoal-dextran treated fetal bovine serum (Hyclone). Twenty four hours later, compounds prepared in DMSO are transferred to the cells. The cells are then stimulated with 0.3 nM final concentration of dihydrotestosterone (Sigma) and incubated at 37° C. for another 24 hours before the luciferase activity is assayed with 20 μl of Bright-Glo (Promega) using a luminometer (CLIPR). The expression of luciferase is used as an indicator of dihydrotestosterone-induced AR trans-activation. Each compound is tested in duplicates with a 12-concentration titration. IC50 values (defined as the concentration of test compound required to antagonize 50% of dihydrotestosterone-induced AR activity) are determined from the dose-response curve.

IC50 [1] [nM]	IC50 [2] [nM]	IC50 [3] [nM]	IC50 [4] [nM]	Structure (SMILES)
22	47			Cc1cccc(-c2ccc3c(c2C)NC(=O)CO3)c1 [5-Methyl-6-m-tolyl-4H-benzo[1,4]oxazin-3-one]
	1.3	210		CC(=O)Oc1ccc(CCc2cc(C)c3c(c2)NC(=O)CO3)c(C)c1 [Acetic acid 3-methyl-4-[2-(8-methyl-3-oxo-3,4-dihydro-2H-benzo[1,4]oxazin-6-yl)-ethyl]-phenyl ester]
	< 2			CC(=O)Oc1ccc(CCc2ccc3c(c2)NC(=O)CO3)c(C)c1 [acetic acid 3-methyl-4-[2-(3-oxo-3,4-dihydro-2H-benzo[1,4]oxazin-6-yl)-ethyl]-phenyl ester]
	54		138	Cc1ccccc1/C=C/c1ccc2c(c1)NC(=O)CO2 [6-(2-o-tolyl-vinyl)-4H-benzo[1,4]oxazin-3-one]
> 20000	162	> 10000	52	Cc1c(-c2csc(-c3ccccc3C(F)(F)F)n2)ccc2c1NC(=O)CO2 [5-Methyl-6-[2-(2-trifluoromethyl-phenyl)-thiazol-4-yl]-4H-benzo[1,4]oxazin-3-one]
